Laboratory results as given in ChEMBL document CHEMBL1158620, “Synthesis and evaluation of novel alpha-amino cyclic boronates as inhibitors of HCV NS3 protease” (Bioorg Med Chem Lett, 2010).

What was measured:
[1] = test system: Hepatitis C virus; assay: Inhibition of HCV 1a NS3/4A protease by FRET assay; assay type: functional, Hepatitis C virus subtype 1a; settings: for IC50: Hepatitis C virus
[2] = test system: Hepatitis C virus; assay: Antiviral activity against HCV 1b by cell based replicon assay; assay type: functional, organism-based, Hepacivirus hominis; settings: genotype 1b
[3] = test system: Hepatitis C virus; assay: Antiviral activity against HCV 1a by cell based replicon assay; assay type: functional, organism-based, Hepacivirus hominis; settings: subtype 1a

| IC50 [1] [nM] | EC50 [2] [nM] | EC50 [3] [nM] | Structure (SMILES) | Ki [1] [nM] |
| --- | --- | --- | --- | --- |
| 1930 | > 1000 | > 1000 | CC(C)(C)[C@@H](NC(=O)OC1CCCC1)C(=O)N1C[C@H](Oc2nccc3ccccc23)C[C@H]1C(=O)N[C@@H]1B(O)OC[C@@H]1C1CC1 | – |
| 23 | > 1000 | > 1000 | CC(C)(C)[C@H](NC(=O)OC1CCCC1)C(=O)N1C[C@H](OC(=O)N2Cc3cccc(F)c3C2)C[C@H]1C(=O)N[C@H]1CCOB1O | – |
| 5310 | > 1000 | > 1000 | CC(C)(C)[C@H](NC(=O)OC1CCCC1)C(=O)N1C[C@H](OC(=O)N2Cc3cccc(F)c3C2)C[C@H]1C(=O)N[C@@H]1CCOB1O | – |
| 320 | > 1000 | > 1000 | CC(C)(C)[C@H](NC(=O)OC1CCCC1)C(=O)N1C[C@H](OC(=O)N2Cc3cccc(F)c3C2)C[C@H]1C(=O)NC1CCCOB1O (stereo not given in full) | – |
| 24 | > 1000 | > 1000 | CC(C)(C)[C@H](NC(=O)OC1CCCC1)C(=O)N1C[C@H](OC(=O)N2Cc3cccc(F)c3C2)C[C@H]1C(=O)NC1CCCCOB1O (stereo not given in full) | – |
| 330 | > 1000 | > 1000 | CC[C@H]1COB(O)[C@H]1NC(=O)[C@@H]1C[C@@H](OC(=O)N2Cc3cccc(F)c3C2)CN1C(=O)[C@@H](NC(=O)OC1CCCC1)C(C)(C)C | – |
| 200 | > 1000 | > 1000 | CC(C)(C)[C@H](NC(=O)OC1CCCC1)C(=O)N1C[C@H](OC(=O)N2Cc3cccc(F)c3C2)C[C@H]1C(=O)N[C@@H]1B(O)OC[C@@H]1C1CC1 | – |
| 340 | > 1000 | > 1000 | C[C@H]1C[C@H](NC(=O)[C@@H]2C[C@@H](OC(=O)N3Cc4cccc(F)c4C3)CN2C(=O)[C@@H](NC(=O)OC2CCCC2)C(C)(C)C)B(O)O1 | – |
| 4470 | > 1000 | > 1000 | C[C@H]1[C@H](C)OB(O)[C@H]1NC(=O)[C@@H]1C[C@@H](OC(=O)N2Cc3cccc(F)c3C2)CN1C(=O)[C@@H](NC(=O)OC1CCCC1)C(C)(C)C | – |
| 8500 | > 1000 | > 1000 | CC(C)(C)[C@H](NC(=O)OC1CCCC1)C(=O)N1C[C@H](OC(=O)N2Cc3cccc(F)c3C2)C[C@H]1C(=O)N[C@H]1COB(O)C1 | – |
| 120 | > 1000 | > 1000 | CC(C)(C)[C@@H](NC(=O)OC1CCCC1)C(=O)N1C[C@H](Oc2nccc3ccccc23)C[C@H]1C(=O)N[C@H]1CCOB1O | – |
| 2750 | > 1000 | > 1000 | CC(C)(C)[C@@H](NC(=O)OC1CCCC1)C(=O)N1C[C@H](Oc2nccc3ccccc23)C[C@H]1C(=O)N[C@@H]1CCOB1O | – |
| 730 | > 1000 | > 1000 | CC(C)(C)[C@@H](NC(=O)OC1CCCC1)C(=O)N1C[C@H](Oc2nccc3ccccc23)C[C@H]1C(=O)NC1CCCOB1O (stereo not given in full) | – |
| 170 | > 1000 | > 1000 | CC(C)(C)[C@@H](NC(=O)OC1CCCC1)C(=O)N1C[C@H](Oc2nccc3ccccc23)C[C@H]1C(=O)NC1CCCCOB1O (stereo not given in full) | – |
| 120 | > 1000 | > 1000 | CC(C)(C)[C@H](NC(=O)[C@@H](NC(=O)c1cnccn1)C1CCCCC1)C(=O)N1C[C@@H]2CCC[C@@H]2[C@H]1C(=O)N[C@H]1CCOB1O | – |
| 340 | > 1000 | > 1000 | CC(C)(C)NC(=O)N[C@H](C(=O)N1C[C@H]2[C@@H]([C@H]1C(=O)N[C@H]1CCOB1O)C2(C)C)C(C)(C)C | – |
| 100 | – | – | CCC[C@H](NC(=O)[C@@H]1[C@H]2CCC[C@H]2CN1C(=O)[C@@H](NC(=O)[C@@H](NC(=O)c1cnccn1)C1CCCCC1)C(C)(C)C)C(=O)C(=O)NC1CC1 | 44 |
